Data on five compounds can be found in patent publication US9603364B2 (Dow AgroSciences LLC, priority 2013, dated 2017).

Assay in all cases: General post-emergent herbicidal activity, foliar application
Assay type in all cases: in vivo

One assay concerns Zea mays L. (corn). The settings on record: 336 h, scored after 14 days, read-out: % Visual Growth Reduction ZEAMX; for plant injury at 140 g/ha: 140 g ai/ha; for plant injury at 280 g/ha: 280 g ai/ha. The gist of the method: (§1)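 Injury rated visually 14 days after treatment on a 0 (none) to 100% (complete kill) scale against untreated plants; greenhouse-grown, sub-irrigated to avoid wash-off. Foliar spray in aqueous acetone/DMSO with isopropanol, crop oil concentrate and Triton X-155, at a highest rate and 2-fold serial dilutions down to 1/16×.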

Another assay relates to Oryza sativa L. (rice). The settings on record: Oryza sativa, 336 h, scored after 14 days, read-out: % Visual Growth Reduction ORYSA; for plant injury at 140 g/ha: 140 g ai/ha; for plant injury at 280 g/ha: 280 g ai/ha. The gist of the method:
as §1

The subject of assay [1] is Echinochloa crus-galli (L.) Beauv. (barnyardgrass). The settings on record: for pest or weed control at 140 g/ha: 140 g ai/ha; for pest or weed control at 280 g/ha: 280 g ai/ha; for GR80 Value ECHCG: calculated by probit analysis, dose for 80% visual injury, may be extrapolated. The gist of the method: (§2)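 Visual injury ratings on a scale of 0 (none) to 100% (complete kill), taken 14 days after foliar post-emergence treatment of greenhouse plants and compared with untreated plants, were fitted by probit analysis to give GR20, GR50 and GR80 doses; some GR80 values are extrapolated from the slope. Sprays contained crop oil concentrate and surfactant, with rates from the highest down to 1/16×.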

Assay [2] relates to Amaranthus retroflexus L. (pigweed, redroot). The settings on record: for pest or weed control at 140 g/ha: 140 g ai/ha; for pest or weed control at 280 g/ha: 280 g ai/ha; for GR80 Value AMARE: calculated by probit analysis, dose for 80% visual injury, may be extrapolated. In outline: as §2
Assay [3] relates to Helianthus annuus L. (sunflower, common). The settings on record: for pest or weed control at 140 g/ha: 140 g ai/ha; for pest or weed control at 280 g/ha: 280 g ai/ha; for GR80 Value HELAN: calculated by probit analysis, dose for 80% visual injury, may be extrapolated. The gist of the method: as §2
Assay [4] relates to Chenopodium album L. (lambsquarters, common). Conditions: for pest or weed control at 140 g/ha: 140 g ai/ha; for pest or weed control at 280 g/ha: 280 g ai/ha; for GR80 Value CHEAL: calculated by probit analysis, dose for 80% visual injury, may be extrapolated. The gist of the method: as §2
Assay [5] deals with Viola tricolor L. (pansy). Conditions: for pest or weed control at 140 g/ha: 140 g ai/ha; for pest or weed control at 280 g/ha: 280 g ai/ha; for GR80 Value VIOTR: calculated by probit analysis, dose for 80% visual injury, may be extrapolated. In outline:
as §2

For assay [6], the system named is Euphorbia heterophylla L. (poinsettia, wild). Conditions: for pest or weed control at 140 g/ha: 140 g ai/ha; for pest or weed control at 280 g/ha: 280 g ai/ha; for GR80 Value EPHHL: calculated by probit analysis, dose for 80% visual injury, may be extrapolated. In outline:
as §2

Where [7] appears, read: Echinochloa crus-galli, 336 h, foliar post-emergent, scored after 14 days, read-out: % Visual Growth Reduction ECHCG.
Setting [8] is: Amaranthus retroflexus, 336 h, foliar post-emergent, scored after 14 days, read-out: % Visual Growth Reduction AMARE.
Setting [9] is: Helianthus annuus, 336 h, foliar post-emergent, scored after 14 days, read-out: % Visual Growth Reduction HELAN.
Setting [10] is: Chenopodium album, 336 h, foliar post-emergent, scored after 14 days, read-out: % Visual Growth Reduction CHEAL.
Setting [11] is: Viola tricolor, 336 h, foliar post-emergent, scored after 14 days, read-out: % Visual Growth Reduction VIOTR.
Setting [12] is: Euphorbia heterophylla, 336 h, foliar post-emergent, scored after 14 days, read-out: % Visual Growth Reduction EPHHL.

On to `Nc1c(F)c(C(F)F)nc(C(=O)O)c1Cl` [Compound F32, 4-Amino-3-chloro-6-(difluoromethyl)-5-fluoropicolinic acid], for which the plant injury at 140 g/ha in the assay with Zea mays L. (corn) and in the assay with Oryza sativa L. (rice) was 0% in each case. The plant injury at 280 g/ha amounted to 10% in the assay with Zea mays L. (corn) and 5% in the assay with Oryza sativa L. (rice). Moreover, the pest or weed control at 140 g/ha in assay [1] (setting [7]) was found to be 55%; in assay [2] (setting [8]) it was 55%; in assay [3] (setting [9]), 100%; in assay [4] (setting [10]) it was 90%; in assay [5] (setting [11]), 5%; in assay [6] (setting [12]) it was 30%. Further, the pest or weed control at 280 g/ha amounted to 60% in assay [1] (setting [7]); 85% in assay [2] (setting [8]); 100% in assay [3] (setting [9]); 100% in assay [4] (setting [10]); 10% in assay [5] (setting [11]); 50% in assay [6] (setting [12]). In addition, in assay [1], the “GR80 Value ECHCG” value is recorded as 433 g ai/ha. The “GR80 Value AMARE” value in assay [2] is listed as 251 g ai/ha. For the same compound, the “GR80 Value HELAN” value in assay [3] is 40.8 g ai/ha. In addition, the “GR80 Value CHEAL” value in assay [4] is given as 26.9 g ai/ha. For the same compound, the “GR80 Value VIOTR” value in assay [5] was >280 g ai/ha. Also, the “GR80 Value EPHHL” value in assay [6] is reported as >280 g ai/ha.
Regarding `COC(=O)c1nc(C(F)F)c(Cl)c(N)c1Cl` [Compound F7, Methyl 4-amino-3,5-dichloro-6-(difluoromethyl)picolinate], the plant injury at 70 g/ha with Zea mays L. (corn) (70 g ai/ha) and in the assay with Oryza sativa L. (rice) (70 g ai/ha) was 0% in each case. Moreover, the plant injury at 140 g/ha in the assay on Zea mays L. (corn) and in the assay with Oryza sativa L. (rice) was 0% each time. Further, the plant injury at 280 g/ha in the assay with Zea mays L. (corn) came to 10%; in the assay on Oryza sativa L. (rice), 0%. For the same compound, the pest or weed control at 70 g/ha in assay [1] (Echinochloa crus-galli, 336 h, 70 g ai/ha, foliar post-emergent, scored after 14 days, read-out: % Visual Growth Reduction ECHCG) came to 0%; in assay [2] (Amaranthus retroflexus, 336 h, 70 g ai/ha, foliar post-emergent, scored after 14 days, read-out: % Visual Growth Reduction AMARE) it was 75%; in assay [3] (Helianthus annuus, 336 h, 70 g ai/ha, foliar post-emergent, scored after 14 days, read-out: % Visual Growth Reduction HELAN), 60%; in assay [4] (Chenopodium album, 336 h, 70 g ai/ha, foliar post-emergent, scored after 14 days, read-out: % Visual Growth Reduction CHEAL), 0%; in assay [5] (Viola tricolor, 336 h, 70 g ai/ha, foliar post-emergent, scored after 14 days, read-out: % Visual Growth Reduction VIOTR), 0%; in assay [6] (Euphorbia heterophylla, 336 h, 70 g ai/ha, foliar post-emergent, scored after 14 days, read-out: % Visual Growth Reduction EPHHL) it was 90%. Besides, the pest or weed control at 140 g/ha in assay [1] (setting [7]) amounted to 0%; in assay [2] (setting [8]) it was 90%; in assay [3] (setting [9]), 80%; in assay [4] (setting [10]), 0%; in assay [5] (setting [11]) it was 0%; in assay [6] (setting [12]), 100%. The pest or weed control at 280 g/ha in assay [1] (setting [7]) is 0%; in assay [2] (setting [8]), 100%; in assay [3] (setting [9]), 90%; in assay [4] (setting [10]), 0%; in assay [5] (setting [11]), 0%; in assay [6] (setting [12]) it was 100%. Also, in assay [1], the “GR80 Value ECHCG” value is >280 g ai/ha. In addition, the “GR80 Value AMARE” value in assay [2] is given as 84.2 g ai/ha. In addition, the “GR80 Value HELAN” value in assay [3] is 145 g ai/ha. Moreover, the “GR80 Value CHEAL” value in assay [4] was >280 g ai/ha. Also, in assay [5], the “GR80 Value VIOTR” value is listed as >280 g ai/ha. The “GR80 Value EPHHL” value in assay [6] is given as 17.5 g ai/ha.
Consider `COC(=O)c1nc(C(C)CF)cc(N)c1Cl` (stereo not shown) [Compound F20, methyl 4-amino-3-chloro-6-(1-fluoropropan-2-yl)picolinate], for which the plant injury at 140 g/ha in the assay with Zea mays L. (corn) and with Oryza sativa L. (rice) was 0% each time. Moreover, the pest or weed control at 140 g/ha in assay [1] (setting [7]) was determined as 0%; in assay [2] (setting [8]), 95%; in assay [3] (setting [9]), 50%; in assay [4] (setting [10]), 80%; in assay [5] (setting [11]), 30%; in assay [6] (setting [12]), 95%.
`C=C(F)c1cc(N)c(Cl)c(C(=O)OC)n1` [Compound F6, methyl 4-amino-3-chloro-6-(1-fluorovinyl)picolinate]: the plant injury at 280 g/ha with Zea mays L. (corn) and in the assay with Oryza sativa L. (rice) was 0% each time. The pest or weed control at 280 g/ha in assay [1] (setting [7]) came out at 0%; in assay [2] (setting [8]), 40%; in assay [3] (setting [9]), 20%; in assay [4] (setting [10]) it was 90%; in assay [5] (setting [11]) it was 0%; in assay [6] (setting [12]) it was 60%.
Consider `COC(=O)c1nc(CCC(F)(F)F)c(Cl)c(N)c1Cl` [Compound F5, methyl 4-amino-3,5-dichloro-6-(3,3,3-trifluoropropyl)picolinate], for which the plant injury at 280 g/ha in the assay with Zea mays L. (corn) and with Oryza sativa L. (rice) was 0% each time. The pest or weed control at 280 g/ha in assay [1] (setting [7]) stood at 0%; in assay [2] (setting [8]) it was 0%; in assay [3] (setting [9]) it was 60%; in assay [4] (setting [10]), 0%; in assay [5] (setting [11]), 0%; in assay [6] (setting [12]) it was 0%.
